Results as given in the supplement of paper PMC11424490.

Assays:
Assay in all cases: combination cScore with sotorasib (Bliss gap around IC50) (%PoC); higher = stronger additive effect
NCI-H2122 = tested on: NCI-H2122
Summary of the method: (§1)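 After 24 h in 384-well plates (500 or 800 cells per well), NCI-H2122, NCI-H358 and SW837 cells received concentration matrices and grew for 72 h, except SW837, which grew for 144 h. CellTiter-Glo readings were scaled to vehicle wells and fitted with four-parameter curves. Each score is the averaged Bliss-independence difference (expected minus measured viability) over a region around both monotherapy IC50s, or at top concentrations when no IC50 was reached.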

SW837 = tested on: SW837
Summary of the method: as §1

NCI-H358 = tested on: NCI-H358
Summary of the method: as §1

| SMILES | combination cScore with sotorasib (NCI-H2122) | combination cScore with sotorasib (SW837) | combination cScore with sotorasib (NCI-H358) |
| --- | --- | --- | --- |
| CCCc1cc(C)[nH]c(=O)c1CNC(=O)c1cc(-c2ccnc(N3CCN(C)CC3)c2)cc2c1cnn2C(C)C [GSK343] + C=CC(=O)N1CCN(c2nc(=O)n(-c3c(C)ccnc3C(C)C)c3nc(-c4c(O)cccc4F)c(F)cc23)[C@@H](C)C1 [sotorasib] | 8.7 | 9.75 | 2.88 |
| COc1cc2ncnc(Nc3ccc(F)c(Cl)c3)c2cc1OCCCN1CCOCC1 [Gefitinib] + C=CC(=O)N1CCN(c2nc(=O)n(-c3c(C)ccnc3C(C)C)c3nc(-c4c(O)cccc4F)c(F)cc23)[C@@H](C)C1 [sotorasib] | 26.4 | 23.2 | 8.62 |
| CCS(=O)(=O)Nc1ccc2c(c1)/C(=C(/Nc1ccc(CN3CCCCC3)cc1)c1ccccc1)C(=O)N2 [Hesperadin] + C=CC(=O)N1CCN(c2nc(=O)n(-c3c(C)ccnc3C(C)C)c3nc(-c4c(O)cccc4F)c(F)cc23)[C@@H](C)C1 [sotorasib] | 12.3 | 5.4 | 4.25 |
| O=C(O)CNC(=O)c1c(O)c2ccccc2n(Cc2ccccc2)c1=O [IOX2] + C=CC(=O)N1CCN(c2nc(=O)n(-c3c(C)ccnc3C(C)C)c3nc(-c4c(O)cccc4F)c(F)cc23)[C@@H](C)C1 [sotorasib] | 21.3 | 17.9 | 0.66 |
| C[C@H](NC(=O)c1c(N)nn2cccnc12)c1cc2cccc(C#Cc3cnn(C)c3)c2c(=O)n1-c1ccccc1 [IPI-549] + C=CC(=O)N1CCN(c2nc(=O)n(-c3c(C)ccnc3C(C)C)c3nc(-c4c(O)cccc4F)c(F)cc23)[C@@H](C)C1 [sotorasib] | 15.1 | 4.45 | 2.47 |
| C=CC(=O)N1CCC[C@@H](n2nc(-c3ccc(Oc4ccccc4)cc3)c3c(N)ncnc32)C1 [Ibrutinib] + C=CC(=O)N1CCN(c2nc(=O)n(-c3c(C)ccnc3C(C)C)c3nc(-c4c(O)cccc4F)c(F)cc23)[C@@H](C)C1 [sotorasib] | 27.9 | 13.3 | 14.4 |
| CS(=O)(=O)CCNCc1ccc(-c2ccc3ncnc(Nc4ccc(OCc5cccc(F)c5)c(Cl)c4)c3c2)o1 [Lapatinib] + C=CC(=O)N1CCN(c2nc(=O)n(-c3c(C)ccnc3C(C)C)c3nc(-c4c(O)cccc4F)c(F)cc23)[C@@H](C)C1 [sotorasib] | 28.9 | 15.4 | 12.8 |
| Cc1c(CN2CCC(Nc3ncnc4sc(CC(F)(F)F)cc34)CC2)ccc2[nH]c(C#N)cc12 [MI-463] + C=CC(=O)N1CCN(c2nc(=O)n(-c3c(C)ccnc3C(C)C)c3nc(-c4c(O)cccc4F)c(F)cc23)[C@@H](C)C1 [sotorasib] | 10.2 | 12.3 | 2.97 |
| NC1(c2ccc(-c3nc4ccn5c(=O)[nH]nc5c4cc3-c3ccccc3)cc2)CCC1 [MK-2206] + C=CC(=O)N1CCN(c2nc(=O)n(-c3c(C)ccnc3C(C)C)c3nc(-c4c(O)cccc4F)c(F)cc23)[C@@H](C)C1 [sotorasib] | 15.5 | 18 | 1.28 |
| CC(C)n1nc(-c2ccc3oc(N)nc3c2)c2c(N)ncnc21 [MLN-0128] + C=CC(=O)N1CCN(c2nc(=O)n(-c3c(C)ccnc3C(C)C)c3nc(-c4c(O)cccc4F)c(F)cc23)[C@@H](C)C1 [sotorasib] | 6.3 | 15.9 | 10.3 |
| O=C1c2c(O)ccc(O)c2C(=O)c2c(NCCNCCO)ccc(NCCNCCO)c21 [Mitoxantrone] + C=CC(=O)N1CCN(c2nc(=O)n(-c3c(C)ccnc3C(C)C)c3nc(-c4c(O)cccc4F)c(F)cc23)[C@@H](C)C1 [sotorasib] | 11.3 | 7.33 | 1.3 |
| COc1cc(N2CCC(N3CCN(C)CC3)CC2)ccc1Nc1ncc(Cl)c(Nc2ccccc2S(=O)(=O)C(C)C)n1 [NVP-TAE684] + C=CC(=O)N1CCN(c2nc(=O)n(-c3c(C)ccnc3C(C)C)c3nc(-c4c(O)cccc4F)c(F)cc23)[C@@H](C)C1 [sotorasib] | 14.6 | 22.3 | 5.9 |
| O=C(c1cc(Cc2n[nH]c(=O)c3ccccc23)ccc1F)N1CCN(C(=O)C2CC2)CC1 [Olaparib] + C=CC(=O)N1CCN(c2nc(=O)n(-c3c(C)ccnc3C(C)C)c3nc(-c4c(O)cccc4F)c(F)cc23)[C@@H](C)C1 [sotorasib] | 6.94 | 8.33 | 1.2 |
| C=CC(=O)Nc1cc(Nc2nccc(-c3cn(C)c4ccccc34)n2)c(OC)cc1N(C)CCN(C)C [Osimertinib] + C=CC(=O)N1CCN(c2nc(=O)n(-c3c(C)ccnc3C(C)C)c3nc(-c4c(O)cccc4F)c(F)cc23)[C@@H](C)C1 [sotorasib] | 16.7 | 15.9 | 11.6 |
| O=C(/C=C/N1C[C@H]2C[C@@H]1CN2c1ccccn1)c1ccccc1O [PFI-3] + C=CC(=O)N1CCN(c2nc(=O)n(-c3c(C)ccnc3C(C)C)c3nc(-c4c(O)cccc4F)c(F)cc23)[C@@H](C)C1 [sotorasib] | 15.8 | -2.6 | 0.77 |
| O=C(c1c(F)ccc(NS(=O)(=O)N2CC[C@@H](F)C2)c1F)c1c[nH]c2ncc(-c3cnc(C4CC4)nc3)cc12 [PLX8394] + C=CC(=O)N1CCN(c2nc(=O)n(-c3c(C)ccnc3C(C)C)c3nc(-c4c(O)cccc4F)c(F)cc23)[C@@H](C)C1 [sotorasib] | 24.2 | 3.79 | 6.09 |
| CC(=O)c1c(C)c2cnc(Nc3ccc(N4CCNCC4)cn3)nc2n(C2CCCC2)c1=O [Palbociclib] + C=CC(=O)N1CCN(c2nc(=O)n(-c3c(C)ccnc3C(C)C)c3nc(-c4c(O)cccc4F)c(F)cc23)[C@@H](C)C1 [sotorasib] | 8.77 | 38.3 | 3.92 |
| Cc1ccc(C(=O)Nc2ccc(CN3CCN(C)CC3)c(C(F)(F)F)c2)cc1C#Cc1cnc2cccnn12 [Ponatinib] + C=CC(=O)N1CCN(c2nc(=O)n(-c3c(C)ccnc3C(C)C)c3nc(-c4c(O)cccc4F)c(F)cc23)[C@@H](C)C1 [sotorasib] | 19.1 | 1.65 | 0.16 |
| CCc1nc(N)nc(N)c1-c1ccc(Cl)cc1 [Pyrimethamine] + C=CC(=O)N1CCN(c2nc(=O)n(-c3c(C)ccnc3C(C)C)c3nc(-c4c(O)cccc4F)c(F)cc23)[C@@H](C)C1 [sotorasib] | 5.47 | -4.42 | -6.53 |
| CC1(N)CCN(c2cnc(-c3cccc(Cl)c3Cl)c(N)n2)CC1 [SHP099] + C=CC(=O)N1CCN(c2nc(=O)n(-c3c(C)ccnc3C(C)C)c3nc(-c4c(O)cccc4F)c(F)cc23)[C@@H](C)C1 [sotorasib] | 19.1 | 9.98 | 7.84 |
| CCc1c2c(nc3ccc(O)cc13)-c1cc3c(c(=O)n1C2)COC(=O)[C@]3(O)CC [SN-38] + C=CC(=O)N1CCN(c2nc(=O)n(-c3c(C)ccnc3C(C)C)c3nc(-c4c(O)cccc4F)c(F)cc23)[C@@H](C)C1 [sotorasib] | 11.8 | 2.7 | 2.64 |
| C[C@@H]1OCC2(CCN(c3cnc(Sc4ccnc(N)c4Cl)c(N)n3)CC2)[C@@H]1N [TNO155] + C=CC(=O)N1CCN(c2nc(=O)n(-c3c(C)ccnc3C(C)C)c3nc(-c4c(O)cccc4F)c(F)cc23)[C@@H](C)C1 [sotorasib] | 41.9 | 41.3 | 10.6 |
| CC/C(=C(\c1ccccc1)c1ccc(OCCN(C)C)cc1)c1ccccc1 [Tamoxifen] + C=CC(=O)N1CCN(c2nc(=O)n(-c3c(C)ccnc3C(C)C)c3nc(-c4c(O)cccc4F)c(F)cc23)[C@@H](C)C1 [sotorasib] | 11.1 | 0.835 | 2.01 |
| Cc1nc(-c2cn3c(n2)-c2ccc(-c4cnn(C(C)(C)C(N)=O)c4)cc2OCC3)n(C(C)C)n1 [Taselisib] + C=CC(=O)N1CCN(c2nc(=O)n(-c3c(C)ccnc3C(C)C)c3nc(-c4c(O)cccc4F)c(F)cc23)[C@@H](C)C1 [sotorasib] | 25.3 | 32.8 | 7.14 |
| COc1cc2/c(=N/c3ccc(Br)cc3F)nc[nH]c2cc1OCC1CCN(C)CC1 [Vandetanib] + C=CC(=O)N1CCN(c2nc(=O)n(-c3c(C)ccnc3C(C)C)c3nc(-c4c(O)cccc4F)c(F)cc23)[C@@H](C)C1 [sotorasib] | 28.4 | 22.6 | 7.76 |
| Oc1nc(-c2ccc(C(F)(F)F)cc2)nc2c1CSCC2 [XAV939] + C=CC(=O)N1CCN(c2nc(=O)n(-c3c(C)ccnc3C(C)C)c3nc(-c4c(O)cccc4F)c(F)cc23)[C@@H](C)C1 [sotorasib] | 14.2 | 7.47 | 7.36 |
